Values after ≈ are worked out from the molar mass of the structure shown.
Columns and labels:
[1] = system: CD4+T-cell subsets; experiment: Activation of CD4+T-cell subsets (CD38, HLA-DR expression by flow cytometry); conditions: for inhibition of immune activation of CD4+T-cell subsets by PMA+Ionomycin (CD38, HLA-DR): Comparative example 3, PMA 100 nM + Ionomycin 1 μM, 100 ng/ml; for inhibition of immune activation of CD4+T-cell subsets by PMA+Ionomycin (CD38, HLA-DR) / inhibition of immune activation of CD4+T-cell subsets by anti-CD3/CD28 antibody (CD38, HLA-DR): 72 hours; for inhibition of immune activation of CD4+T-cell subsets by anti-CD3/CD28 antibody (CD38, HLA-DR): Comparative example 3, isolated CD4+T-cells, anti-CD3/CD28 beads
Protocol: After 48 hours, the cells were stained with anti-human CD4, CD38, HLA-DR flow cytometry antibody (purchased from Invitrogen), and the CD4^+T-cells were gated by flow cytometry to detect the expression of CD38, HLA-DR molecules on the cell surface.
Freshly isolated healthy human PBMC (3×10^7 cells) were cultured in cell culture medium containing IL-2 (20 IU/mL), stimulated with PMA (100 nM) and Ionomycin (1 μM) for 72 hours, and the compound to be tested (100 ng/ml) was added at the same time: the cells were washed twice with FACS buffer, followed by addition of anti CD3-PerCP, CD4-PE, CD38-PE-Cy7. HLA-DR-APC antibodies, stained for 30 minutes at 4° C.: the cells were washed twice with FACS buffer, and the expression of the above molecules was detected by FACS.
CD4^+T-cells were isolated from freshly isolated healthy human PBMCs with anti-CD4 antibody-coated magnetic beads through positive screening and then cultured in a medium containing IL-2 (20 IU/mL). The cell activation was stimulated with anti-CD3/CD28 antibody-coated magnetic beads for 72 hours, and the compound to be tested was added at the same time. The cells were collected, washed twice with FACS buffer, followed by addition of anti CD3-PerCP, CD4-PE, CD38-PE-Cy7, HLA-DR-APC antibodies, stained at 4° C. for 30 minutes: the cells were washed twice with FACS buffer and collected, and the expression of the above molecules was detected by flow cytometry.

[2] = system: CD4+T-cells; experiment: CFSE proliferation of CD4+T-cells in PHA-P stimulated PBMC; assay type: cell-based, human; conditions: for inhibition of the proliferation of CD4+T-cells in healthy human peripheral blood: Comparative Example 4, PHA-P 5 μg/mL, 100 ng/mL, 72 hours, FIG. 7
Protocol: Healthy human peripheral blood mononuclear cells (PBMC) (purchased from ATCC) were cultured in RPMI-1640/10% FBS serum medium containing IL-2 (20IU). and then stained with CFSE (carboxyfluorescein diacetate succinimidy ester) (10 nM) at 37° C. for 10 minutes, washed twice with the above medium, followed by addition of PHA-P (phytohemagglutinin P) (5 μg/mL) to stimulate cell proliferation with or without addition of T8 compound (100 nM).
The cells were washed with the medium twice, PHA-P (5 μg/mL) was added, and the test compound T8 or triptolide (100 ng/mL each) was added at the same time. After 72 hours at 37° C. the cells were collected, stained with anti-CD4-PE antibody at 4°° C. for 30 minutes, and washed with FACS buffer twice. The cell proliferation was analyzed by flow cytometry.

[3] = MTT cytotoxicity test; assay type: cell-based; conditions: human, HEK293T cells, read-out: CC50 (50% Cytotoxic Concentration)
Protocol: MTT colorimetric method was used to detect the cytotoxicity. HEK293T cells were seeded into 96-well plates (1×10^4/100 μL/well), 100 μL of each concentration of the compounds (compound concentration refers to the figures) was added in triplicate. Control wells without compound were setting at the same time. The cells were incubated in a 37° C. 5% CO2 cell incubator for 72 hours. 100 μL of the supernatant was aspirated from each well and discarded, followed by addition of 20 μL of MTT solution (5 mg/mL) into the wells. […] The absorbance was measured at 595 nm. The CC50 value (50% Cytotoxic Concentration) was calculated, i.e., the concentration of the compound required for producing toxicity on 50% of HEK293T cells.

[4] = system: NF-κB; experiment: NF-κB luciferase reporter (p3κB-luc) assay in HEK293T cells; assay type: cell-based; conditions: for inhibition of the activity of the NF-κB signal pathway activated by TNF-α / inhibition of the activity of the background NF-κB signaling pathway: Comparative Example 2, HEK293T, FIG. 5; for inhibition of the activity of the NF-κB signal pathway activated by TNF-α: TNF-α 20 ng/ml; for inhibition of the activity of the background NF-κB signaling pathway: no TNF-α
Protocol: NF-κB driven […] expression plasmid (p3κB-luc, 100 ng) and internal reference plasmid pBgal (purchased from Bioonline: www.bioon.com.cn) (pSV-β-Galactosidase Control Vector, β-galactosidase expression plasmid, 5 ng) were transfected into HEK293T cells (purchased from ATCC). […] After another 24 hours, all cells were collected and lysed with reporter lysis buffer (purchased from Promega). Luciferase assay system (Promega) was used to detect luciferase activity. Beta-Glo Asaay system (Promega) was used to detect β-Galactosidase activity, and the inhibition effects of T8 on NF-κB activity was analyzed.
The NF-κB reporter gene plasmid p3κB-luc was transfected into HEK293T cells for expression, and pSV-β-Galactosidase Control Vector was co-transfected as transfection internal reference. The activation of NF-κB was induced by TNF-α treatment. T8 and triptolide were added respectively. The expression of NF-κB reporter gene was indicated by detecting luciferase activity, and the effect of T8 and triptolide on NF-κB activation induced by TNF-α was evaluated.
Cell transfection: HEK293T cells were transfected with lipofectamine 2000 Transfection Reagent according to the reagent instructions. 100 ng of plasmid was transfected with 1 μL of transfection reagent into each well of a 24-well cell cultureplate. The plasmid and the transfection reagent were diluted with […] of OPTI-MEM medium, respectively and then mixed together. The mixture was allowed to stand at room temperature for 5 minutes, and then added into the cells in each well. The resulting mixture was mixed gently, placed back into the 37° C. incubator, and the cells were cultured for a specified time.
Luciferase activity detection: NF-κB reporter gene plasmid p3κB-luc plasmid (100 ng), internal reference plasmid pSV-β-Galactosidase Control Vector (5 ng) were transfected into HEK293T cells. After 24 hours. TNF-α (20 ng/ml) was added (or not added) to stimulate the cells for 24 hours, and then the cells were collected and lysed with reporter lysis buffer. Luciferase assay system was used to detect luciferase activity. and Beta-Glo Asaay system was used to detect β-Galactosidase activity.

[5] = system: CD4 counts; experiment: Phase II placebo-controlled trial in HIV immunological non-responders: CD4 counts; assay type: in vivo, human; conditions: for participants with a CD4 count increase over 50 cells/mm^3: placebo 34.6%; for mean absolute increase of CD4 count from baseline: week 48, placebo 32; for CD4 count at Week 48: FAS, with ART
[6] = system: CD8 T cells; experiment: Phase II trial: cellular activation of CD8 T cells (CD38, HLA-DR); assay type: in vivo, human; conditions: among the three groups (0.5 mg, 1 mg, placebo), 62 participants
Protocol: T-cell subsets were measured using CytoFlex flow cytometer (Beckman Coulter Life Science) at participating centers, including T cells (CD45+CD3+), CD4 T cells (CD45+CD3+CD4+), and CD8 T cells (CD45+CD3+CD8+). In PUMCH Lab. exploratory CD8 markers (CD45+CD3+CD8+CD38+ and CD45+CD3+CD8+HLA-DR+) were further measured for participants in three Beijing centers.

[7] = system: HIV-1; experiment: Phase II trial: plasma HIV-1 viral load; assay type: in vivo, human; conditions: all participants, with ART, 48 weeks
Protocol: Plasma HIV-1 viral load was measured at Peking Union Medical College Hospital (PUMCH) Lab by COBAS AmpliPrep/COBAS TaqMan V2.0 RT-PCR (Roche). The lower detection limit is 20 copies per milliliter.

[8] = Phase II trial: safety (adverse events); assay type: in vivo, human; conditions: for participants with treatment-emergent adverse events (TEAEs): placebo 80.7%
Protocol: (§1) The patients were 1:1:1 assigned to receive oral T8 0.5 mg or 1 mg daily, or placebo combined with antiretroviral therapy for 48 weeks. All study staff and participants were masked. The study drug was recommended to be taken in the morning on an empty stomach, and be separated from participants' daily ART. Participants were followed and assessed at Week 4, 12, 24, 36 and 48 of treatment. On each scheduled visit, the investigator would assess the participant's general status, newly-onset symptoms and signs, and adverse events.
Safety endpoints included occurrence of adverse events (AEs) and serious adverse events (SAEs) over the study period. Adverse events included those related to the study drug; all serious adverse events; and abnormal laboratory test values at each study visit.
The efficacy analysis was based on the full analysis set (FAS), which included all randomized patients with at least one posttreatment efficacy assessment, and the per-protocol set (PPS), which included patients who completed the study with proper study drug exposure and without any major protocol violations. The safety analysis was based on the safety analysis set (SAS), which included all randomized patients who received at least one dose of study drug. All safety results were descriptive, listed and summarized.

[9] = system: interferon-γ-induced protein 10 (IP-10); experiment: Phase II trial: serum IP-10; assay type: in vivo, human; design: mean change of serum interferon-γ-induced protein 10: unit not given here; conditions: placebo −22.8; for mean change of serum IP-10 level: Week 48
Protocol: (§2) The phase II, double-blind, randomized, placebo-controlled trial was conducted in adults patients with long-term suppressed HIV infection and suboptimal CD4 recovery, at nine hospitals in China.
as §1
(§3) The primary endpoints of the study included 1) Absolute change of CD4 counts from baseline to week 48: 2) Proportions of participants achieving a CD4 increase ≥50 cells/mm^3 from baseline to week 48: and 3) changes of selected inflammatory markers from baseline to week 48, including interferon-y-induced protein 10 (IP-10), high-sensitivity C-reactive protein (hsCRP), and IL-6.
The primary efficacy differences between treatments on CD4 counts and inflammatory marker level were assessed through the t-test and analysis of covariance (ANCOVA) model. The ANCOVA model, including the baseline CD4 counts as the covariate, study group and center as fixed factors, generated the Least square means (LSMEANs) and relative 95% confidence interval (95% CI) in both FAS and PPS.

[10] = system: high-sensitivity C-reactive protein (hsCRP); experiment: Phase II trial: hsCRP; assay type: in vivo, human; conditions: 1 mg daily (HT8), Week 48
Protocol: as §2, §1, §3

[11] = system: IL-6; experiment: Phase II trial: IL-6; assay type: in vivo, human; conditions: 1 mg daily (HT8), Week 48
Protocol: as §2, §1, §3

SMILES: CC(C)[C@]12O[C@H]1[C@@H]1O[C@]13[C@]1(O[C@H]1C[C@H]1C4=C(CC[C@@]13C)C(=O)OC4)[C@@H]2O [triptolide]
- inhibition of immune activation of CD4+T-cell subsets by PMA+Ionomycin (CD38, HLA-DR) [1]: significantly inhibit
- inhibition of immune activation of CD4+T-cell subsets by anti-CD3/CD28 antibody (CD38, HLA-DR) [1]: significantly inhibit
- inhibition of the proliferation of CD4+T-cells in healthy human peripheral blood [2]: significantly inhibit
- CC50 at 72 h [3]: ~0.017 µg/mL (≈ 0.0472 µM)
- inhibition of the activity of the NF-κB signal pathway activated by TNF-α [4]: effectively inhibit
- inhibition of the activity of the background NF-κB signaling pathway [4]: effectively inhibit

SMILES: CC(C)[C@]12O[C@H]1[C@@H]1O[C@]13[C@]1(O[C@H]1C[C@@]1(O)C4=C(CC[C@]31C)C(=O)OC4)[C@@H]2O [T8, (5R)-5-hydroxytriptolide]
- participants with a CD4 count increase over 50 cells/mm^3 ([5]; 0.5 mg daily (LT8), Week 48): 45.1%
- mean absolute increase of CD4 count from baseline ([5]; 0.5 mg daily (LT8)): 49 cells/mm^3
- CD4 increase in participants with a baseline CD4 count 200-350 cells/mm^3 ([5]; 1 mg daily (HT8) over placebo): consistent superiority
- participants achieving a CD4 increase >20% (superiority) ([5]; 1 mg daily (HT8), Week 48): unremarkable
- participants with a CD4 count increase over 50 cells/mm^3 ([5]; 1 mg daily (HT8), Week 48): 50%
- participants achieving a CD4 increase >20% ([5]; 1 mg daily (HT8), week 24, versus other groups): more participants
- mean absolute increase of CD4 count from baseline ([5]; 1 mg daily (HT8)): 63 cells/mm^3
- mean increase of CD4 count in participants over 45 years old ([5]; 1 mg daily, 48 weeks, placebo 20): 96 cells/mm^3
- CD4 count at Week 48 ([5]; 0.5 mg daily oral (LT8), 48 weeks): 299 cells/mm^3
- CD4 count at Week 48 ([5]; 1 mg daily oral (HT8), 48 weeks): 303 cells/mm^3
- effect on CD4 in participants with a baseline CD4 count below 200 cells/mm^3 ([5]; Week 48): insignificant
- changes of CD4/CD8 ratio ([5]; Week 48, between the three groups (0.5 mg, 1 mg, placebo)): comparable
- benefit in CD4 counts in participants receiving SARS-COV-2 vaccination ([5]; high-dose (1 mg), stratified analysis): insignificant
- inhibition of immune activation of CD4+T-cell subsets by PMA+Ionomycin (CD38, HLA-DR) [1]: significantly inhibit
- inhibition of immune activation of CD4+T-cell subsets by anti-CD3/CD28 antibody (CD38, HLA-DR) [1]: significantly inhibit
- HLA-DRCD4/CD4 ([1]; Example 3, PBMC, PMA 20 nM + Ionomycin 1 μM, 100 nM, 48 h, without compound 36.3%): 3.5%
- CD38CD4/CD4 ([1]; Example 3, PBMC, PMA 20 nM + Ionomycin 1 μM, 100 nM, 48 h, without compound 41.6%): 31%
- surface expressions of CD38 or HLA-DR on CD8 T cells [6]: comparable
- virological suppression during the study [7]: virologically-suppressed
- participants with treatment-emergent adverse events (TEAEs) ([8]; 0.5 mg daily (LT8), 48 weeks): 84.3%
- drug-related SAEs ([8]; 0.5 mg or 1 mg daily, 48 weeks): No drug-related SAEs were reported
- tolerability ([8]; 0.5 mg or 1 mg daily, all participants): well-tolerated
- participants with treatment-emergent adverse events (TEAEs) ([8]; 1 mg daily (HT8), 48 weeks): 89.1%
- TEAEs ≥Grade 3 ([8]; 1 mg daily (HT8), mostly neutrophil decrease and dyslipidemia): slightly more frequent
- inhibition of the proliferation of CD4+T-cells in healthy human peripheral blood [2]: significantly inhibit
- proliferation of CD4+T cells stimulated by PHA (cell proliferation) ([2]; Example 2, PBMC, PHA-P 5 μg/mL, 100 nM, 48 h, without compound 16.6%): 1.9%
- CC50 at 72 h [3]: ~0.435 µg/mL (≈ 1.16 µM)
- inhibition of the activity of the NF-κB signal pathway activated by TNF-α [4]: effectively inhibit
- inhibition of the activity of the background NF-κB signaling pathway [4]: effectively inhibit
- inhibition of background NF-κB activity (untreated with TNF-alpha) ([4]; Example 1, HEK293T, 100 nM, 24 h, FIG. 1): effectively inhibit
- inhibition of NF-κB activity stimulated by TNF-alpha ([4]; Example 1, HEK293T, TNF-alpha 20 ng/mL, 100 nM, 24 h, FIG. 1): effectively inhibit
- mean change of serum IP-10 level ([9]; 0.5 mg daily (LT8)): -42.5 pg/mL
- mean change of serum interferon-γ-induced protein 10 ([9]; 1 mg daily (HT8), 48 weeks): −72.1
- mean change of serum IP-10 level ([9]; 1 mg daily (HT8)): -72.1 pg/mL
- change of HsCRP [10]: slight decrease
- change of IL-6 [11]: slight decrease
